The values below come from patent publication US12441768B2, “Compositions and methods for treating endometriosis” (EndoMet Biosciences, Inc., priority 2018, dated 2025).

In one series the target is T1, β-catenin (Homo sapiens, UniProt P35222).
T1 sequence (P35222 1-781): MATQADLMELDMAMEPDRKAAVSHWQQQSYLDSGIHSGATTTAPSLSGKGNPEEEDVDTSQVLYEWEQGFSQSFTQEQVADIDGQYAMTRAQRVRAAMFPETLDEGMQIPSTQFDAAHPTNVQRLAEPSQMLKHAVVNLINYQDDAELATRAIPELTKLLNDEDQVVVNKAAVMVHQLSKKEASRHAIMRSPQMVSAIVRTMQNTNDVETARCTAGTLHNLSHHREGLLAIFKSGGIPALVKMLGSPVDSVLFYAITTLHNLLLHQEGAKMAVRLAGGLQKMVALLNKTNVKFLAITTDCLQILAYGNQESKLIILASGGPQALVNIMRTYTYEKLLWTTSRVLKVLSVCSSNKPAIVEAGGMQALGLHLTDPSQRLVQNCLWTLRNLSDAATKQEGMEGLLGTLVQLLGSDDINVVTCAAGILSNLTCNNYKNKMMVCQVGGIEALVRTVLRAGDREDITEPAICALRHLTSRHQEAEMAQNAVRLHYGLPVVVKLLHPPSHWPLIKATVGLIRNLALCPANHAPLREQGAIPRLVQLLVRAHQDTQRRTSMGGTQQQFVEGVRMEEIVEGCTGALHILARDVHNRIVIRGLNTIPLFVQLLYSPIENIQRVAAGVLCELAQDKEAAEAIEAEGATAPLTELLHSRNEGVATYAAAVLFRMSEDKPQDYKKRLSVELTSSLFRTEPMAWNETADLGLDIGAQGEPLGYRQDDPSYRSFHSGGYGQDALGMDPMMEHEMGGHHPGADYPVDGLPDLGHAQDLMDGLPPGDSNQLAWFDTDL
The series is described as follows: KD50 measurement using competitive fluorescence polarization (FP) with labelled TCF4. It counts as binding. As to conditions: fluorescence polarization, β-catenin; for Kd: read-out: β-Cat FP KD. In a few lines: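 5 nM labelled TCF4 was combined with 100 nM β-catenin at room temperature, then inhibitor was titrated in serial dilutions from 10 nM to 30 uM. Polarization was read at excitation 470 nm, emission 520 nm; displacement lowers the signal. Three independent experiments.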
Background: In fluorescence polarisation assays a small probe gives low polarisation when free and higher when bound to something large.

The conditions of series [1]: % Viability non-Wnt responsive cells.
For series [2], the target named is Wnt-responsive promoter (TCF/LEF). Put plainly: Wnt-dependent luciferase reporter assay. It counts as cell-based, murine. A digest of the protocol: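 EC50 (uM) derived from inhibition of luminescence in Wnt3a-stimulated murine 3T3 cells expressing luciferase under a TCF/LEF promoter, with peptides added across a concentration range and vehicle as control.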
(In general: In a reporter assay the amount or activity of a reporter protein is the signal.)

Where a SMILES comes first, the peptide text is derived from it.

In general, Kd refers to the constant that tells how readily two partners part at equilibrium. A word on the viability: it is a read-out of living cells in per cent, often relative to untreated cells. In general, EC50 refers to the concentration giving half of the maximal effect. A high value points to lower potency in that assay. As for `CC[C@H](C)[C@H](NC(=O)[C@H](CC(C)C)NC(=O)[C@@H](NC(=O)[C@H](Cc1c[nH]c2ccccc12)NC(=O)[C@H](CCSC)NC(C)=O)C1CCCCC1)C(=O)N[C@@H](CO)C(=O)N[C@@H](Cc1ccccc1)C(=O)N[C@@H](Cc1c[nH]c2ccccc12)C(=O)NCC(=O)O` [compound 217] (HELM PEPTIDE1{[ac].M.W.[O=C([C@@H](N[*:1])C1CCCCC1)[*:2]].L.I.S.F.W.G}$$$$V2.0), at β-catenin, the “β-Cat FP Hill slope” value stood at 1.47 and the Kd is < 0.4 µM. Further, the viability in series [1] was 87.9%. The EC50 in series [2] is < 7.5 µM.

On to `CC[C@H](C)[C@H](NC(=O)[C@H](CC(C)C)NC(=O)[C@H](CC(C)C)NC(=O)[C@H](Cc1c[nH]c2ccccc12)NC(=O)[C@H](CCSC)NC(C)=O)C(=O)N[C@@H](CO)C(=O)N[C@@H](Cc1ccccc1)C(=O)N[C@@H](Cc1c[nH]c2ccccc12)C(=O)NCC(=O)O` [compound 218] (Ac-MWLLISFWG-OH), for which, on β-catenin, the “β-Cat FP Hill slope” value turned out to be 1.85 and the Kd is < 0.4 µM. Also, the viability in series [1] turned out to be 90.8%. The EC50 in series [2] is < 7.5 µM.

For `CC[C@H](C)[C@H](NC(=O)[C@H](CC(C)C)NC(=O)[C@H](Cc1ccccc1)NC(=O)[C@H](Cc1c[nH]c2ccccc12)NC(=O)[C@H](CCSC)NC(C)=O)C(=O)N[C@@H](CO)C(=O)N[C@@H](Cc1ccccc1)C(=O)N[C@@H](Cc1c[nH]c2ccccc12)C(=O)NCC(=O)O` [compound 219] (Ac-MWFLISFWG-OH), at β-catenin, the “β-Cat FP Hill slope” value is 0.86 and the Kd fell in the range of 0.4 to 1 µM. Besides, in series [1], the viability was found to be 90.6%. For the same compound, in series [2], the EC50 is < 7.5 µM.

Turning to `CC[C@H](C)[C@H](NC(=O)[C@H](CC(C)C)NC(=O)[C@H](Cc1ccccc1)NC(=O)[C@H](Cc1c[nH]c2ccccc12)NC(C)=O)C(=O)N[C@@H](CO)C(=O)N[C@@H](Cc1ccccc1)C(=O)N[C@@H](Cc1c[nH]c2ccccc12)C(=O)NCC(=O)O` [compound 220] (Ac-WFLISFWG-OH), on β-catenin, the “β-Cat FP Hill slope” value worked out at 2.99 and the Kd was in the range of 0.4 to 1 µM. For the same compound, in series [1], the viability is 93.2%. Moreover, the EC50 in series [2] was < 7.5 µM.

In the case of `CC[C@H](C)[C@H](NC(=O)[C@H](CC(C)C)NC(=O)[C@@H](NC(=O)[C@H](Cc1c[nH]c2ccccc12)NC(=O)[C@H](CCSC)NC(C)=O)[C@@H](C)CC)C(=O)N[C@@H](CO)C(=O)N[C@@H](Cc1ccccc1)C(=O)N[C@@H](Cc1c[nH]c2ccccc12)C(=O)NCC(=O)OC` [compound 222] (HELM PEPTIDE1{[ac].M.W.I.L.I.S.F.W.G.[CO[*:1]]}$$$$V2.0), on β-catenin, the “β-Cat FP Hill slope” value was 1.56 and the Kd was 1 to 10 µM. Besides, the viability in series [1] is 98.2%. Also, the EC50 in series [2] lay in the range of 7.5 to 15 µM.

In the case of `CC[C@H](C)[C@H](NC(=O)[C@H](CC(C)C)NC(=O)[C@@H](NC(=O)[C@H](Cc1c[nH]c2ccccc12)NC(=O)[C@H](CCSC)NCc1ccccc1)[C@@H](C)CC)C(=O)N[C@@H](CO)C(=O)N[C@@H](Cc1ccccc1)C(=O)N[C@@H](Cc1c[nH]c2ccccc12)C(=O)NCC(=O)O` [compound 223] (HELM PEPTIDE1{[CSCC[C@H](NCc1ccccc1)C(=O)[*:2]].W.I.L.I.S.F.W.G}$$$$V2.0), the “β-Cat FP Hill slope” value at β-catenin worked out at 0.7. Besides, in series [1], the viability stood at 101%. Also, the EC50 in series [2] was < 7.5 µM.

For `CC[C@H](C)[C@H](NC(=O)[C@H](CC(C)C)NC(=O)[C@@H](NC(=O)[C@H](Cc1c[nH]c2ccccc12)NC(=O)[C@H](CCSC)NC(=O)C(C)(C)C)[C@@H](C)CC)C(=O)N[C@@H](CO)C(=O)N[C@@H](Cc1ccccc1)C(=O)N[C@@H](Cc1c[nH]c2ccccc12)C(=O)NCC(=O)O` [compound 225] (HELM PEPTIDE1{[CC(C)(C)C(=O)[*:2]].M.W.I.L.I.S.F.W.G}$$$$V2.0), on β-catenin, the “β-Cat FP Hill slope” value is recorded as 0.7 and the Kd is 0.4 to 1 µM. Also, in series [1], the viability amounted to 101%. The EC50 in series [2] is < 7.5 µM.
